Data: ChEMBL document CHEMBL3885881, “DrugMatrix”

Species: Rattus norvegicus
Assay: DrugMatrix - Regimen: Daily Repeat
Format: toxicity, organism-based, Sprague-Dawley
Set-up: regimen Daily Repeat, gender Male, age 6-8 weeks
Conditions: in vivo, po, route oral GAVAGE, vehicle .5 % CMC; for ABSOLUTE BASOPHIL / ABSOLUTE EOSINOPHIL / ABSOLUTE LYMPHOCYTE / ABSOLUTE MONOCYTE / ABSOLUTE SEGMENTED NEUTROPHIL / BASOPHIL / EOSINOPHIL / ERYTHROCYTE COUNT / HEMATOCRIT / HEMOGLOBIN / LEUKOCYTE COUNT / LYMPHOCYTE / MEAN CORPUSCULAR HEMOGLOBIN / MEAN CORPUSCULAR HEMOGLOBIN CONCENTRATION / MEAN CORPUSCULAR VOLUME / MONOCYTE / NEUTROPHIL / NUCLEATED RED BLOOD CELLS / PLATELET COUNT: tissue Blood; for ALANINE AMINOTRANSFERASE / ALBUMIN / ALKALINE PHOSPHATASE / ASPARTATE AMINOTRANSFERASE / BLOOD UREA NITROGEN / CARBON DIOXIDE / CHLORIDE / CHOLESTEROL / CREATINE PHOSPHOKINASE / CREATININE / GLUCOSE / LACTATE DEHYDROGENASE / LIPASE / PHOSPHORUS / POTASSIUM / SODIUM / TOTAL BILIRUBIN / TOTAL PROTEIN / URIC ACID: tissue Plasma
[1] = 500 mg/kg, 72 h, dose level Low, time 3 day
[2] = 500 mg/kg, 120 h, dose level Low, time 5 day
[3] = 2000 mg/kg, 72 h, dose level High, time 3 day
[4] = 2000 mg/kg, 120 h, dose level High, time 5 day

With `NC[C@H]1CC[C@H](C(=O)O)CC1` [TRANEXAMIC ACID] the “ABSOLUTE BASOPHIL” value [1] was 0 CELLS/uL, the “ABSOLUTE EOSINOPHIL” value [1] was 94.67 CELLS/uL and the “ABSOLUTE LYMPHOCYTE” value [1] was 11832.33 CELLS/uL. For the same compound, the “ABSOLUTE MONOCYTE” value [1] was 147 CELLS/uL, the “ABSOLUTE SEGMENTED NEUTROPHIL” value [1] was 2626 CELLS/uL and the BASOPHIL [1] was 0%. For the same compound, the EOSINOPHIL [1] was 0.67%, the “ERYTHROCYTE COUNT” value [1] was 5.82 x10E6/uL and the HEMATOCRIT [1] was 36.4%. The HEMOGLOBIN [1] was 14.33 G/DL, the “LEUKOCYTE COUNT” value [1] was 14.7 x10E3/uL and the LYMPHOCYTE [1] was 80.33%. For the same compound, the “MEAN CORPUSCULAR HEMOGLOBIN” value [1] was 24.63 pg, the “MEAN CORPUSCULAR HEMOGLOBIN CONCENTRATION” value [1] was 39.43 G/DL and the “MEAN CORPUSCULAR VOLUME” value [1] was 62.5 fL. For the same compound, the MONOCYTE [1] was 1%, the NEUTROPHIL [1] was 18% and the “NUCLEATED RED BLOOD CELLS” value [1] was 0 /100WBC. The “PLATELET COUNT” value [1] was 1287 x10E3/uL, the “ALANINE AMINOTRANSFERASE” value [1] was 49.33 u/L and the ALBUMIN [1] was 4.3 G/DL. The “ALKALINE PHOSPHATASE” value [1] was 364.33 u/L, the “ASPARTATE AMINOTRANSFERASE” value [1] was 83 u/L and the “BLOOD UREA NITROGEN” value [1] was 13.67 mg/dL. For the same compound, the “CARBON DIOXIDE” value [1] was 25.33 mmol/L, the CHLORIDE [1] was 102 MEQ/L and the CHOLESTEROL [1] was 81 mg/dL. The “CREATINE PHOSPHOKINASE” value [1] was 246 u/L, the CREATININE [1] was 0.17 mg/dL and the GLUCOSE [1] was 155 mg/dL. For the same compound, the “LACTATE DEHYDROGENASE” value [1] was 225.67 u/L, the LIPASE [1] was 10 u/L and the PHOSPHORUS [1] was 14.07 mg/dL. The POTASSIUM [1] was 6.58 MEQ/L, the SODIUM [1] was 145.07 MEQ/L and the “TOTAL BILIRUBIN” value [1] was 0.2 mg/dL. The “TOTAL PROTEIN” value [1] was 6.07 G/DL, the “URIC ACID” value [1] was 1.83 mg/dL and the “ABSOLUTE BASOPHIL” value [2] was 0 CELLS/uL. The “ABSOLUTE EOSINOPHIL” value [2] was 0 CELLS/uL, the “ABSOLUTE LYMPHOCYTE” value [2] was 10774 CELLS/uL and the “ABSOLUTE MONOCYTE” value [2] was 92 CELLS/uL. The “ABSOLUTE SEGMENTED NEUTROPHIL” value [2] was 2034 CELLS/uL, the BASOPHIL [2] was 0% and the EOSINOPHIL [2] was 0%. The “ERYTHROCYTE COUNT” value [2] was 5.74 x10E6/uL, the HEMATOCRIT [2] was 35.7% and the HEMOGLOBIN [2] was 14.13 G/DL. For the same compound, the “LEUKOCYTE COUNT” value [2] was 12.9 x10E3/uL, the LYMPHOCYTE [2] was 83.67% and the “MEAN CORPUSCULAR HEMOGLOBIN” value [2] was 24.67 pg. The “MEAN CORPUSCULAR HEMOGLOBIN CONCENTRATION” value [2] was 39.57 G/DL, the “MEAN CORPUSCULAR VOLUME” value [2] was 62.33 fL and the MONOCYTE [2] was 0.67%. For the same compound, the NEUTROPHIL [2] was 15.67%, the “NUCLEATED RED BLOOD CELLS” value [2] was 0 /100WBC and the “PLATELET COUNT” value [2] was 1198 x10E3/uL. For the same compound, the “ALANINE AMINOTRANSFERASE” value [2] was 58.67 u/L, the ALBUMIN [2] was 4.17 G/DL and the “ALKALINE PHOSPHATASE” value [2] was 364.67 u/L. The “ASPARTATE AMINOTRANSFERASE” value [2] was 90.67 u/L, the “BLOOD UREA NITROGEN” value [2] was 15 mg/dL and the “CARBON DIOXIDE” value [2] was 25.67 mmol/L. For the same compound, the CHLORIDE [2] was 102 MEQ/L, the CHOLESTEROL [2] was 61 mg/dL and the “CREATINE PHOSPHOKINASE” value [2] was 280.67 u/L. For the same compound, the CREATININE [2] was 0.21 mg/dL, the GLUCOSE [2] was 154 mg/dL and the “LACTATE DEHYDROGENASE” value [2] was 250.33 u/L. The LIPASE [2] was 9.33 u/L, the PHOSPHORUS [2] was 12.3 mg/dL and the POTASSIUM [2] was 6.07 MEQ/L. The SODIUM [2] was 144.43 MEQ/L, the “TOTAL BILIRUBIN” value [2] was 0.17 mg/dL and the “TOTAL PROTEIN” value [2] was 5.9 G/DL. For the same compound, the “URIC ACID” value [2] was 1.53 mg/dL, the “ABSOLUTE BASOPHIL” value [3] was 0 CELLS/uL and the “ABSOLUTE EOSINOPHIL” value [3] was 131 CELLS/uL. The “ABSOLUTE LYMPHOCYTE” value [3] was 11124 CELLS/uL, the “ABSOLUTE MONOCYTE” value [3] was 58.67 CELLS/uL and the “ABSOLUTE SEGMENTED NEUTROPHIL” value [3] was 1786.33 CELLS/uL. The BASOPHIL [3] was 0%, the EOSINOPHIL [3] was 1% and the “ERYTHROCYTE COUNT” value [3] was 5.38 x10E6/uL. The HEMATOCRIT [3] was 32.57%, the HEMOGLOBIN [3] was 12.97 G/DL and the “LEUKOCYTE COUNT” value [3] was 13.1 x10E3/uL. For the same compound, the LYMPHOCYTE [3] was 84%, the “MEAN CORPUSCULAR HEMOGLOBIN” value [3] was 24.13 pg and the “MEAN CORPUSCULAR HEMOGLOBIN CONCENTRATION” value [3] was 39.83 G/DL. The “MEAN CORPUSCULAR VOLUME” value [3] was 60.57 fL, the MONOCYTE [3] was 0.33% and the NEUTROPHIL [3] was 14.67%. The “NUCLEATED RED BLOOD CELLS” value [3] was 0 /100WBC, the “PLATELET COUNT” value [3] was 1338.33 x10E3/uL and the “ALANINE AMINOTRANSFERASE” value [3] was 49.67 u/L. For the same compound, the ALBUMIN [3] was 3.9 G/DL, the “ALKALINE PHOSPHATASE” value [3] was 293.67 u/L and the “ASPARTATE AMINOTRANSFERASE” value [3] was 92 u/L. For the same compound, the “BLOOD UREA NITROGEN” value [3] was 15.33 mg/dL, the “CARBON DIOXIDE” value [3] was 25.33 mmol/L and the CHLORIDE [3] was 100 MEQ/L. For the same compound, the CHOLESTEROL [3] was 71.33 mg/dL, the “CREATINE PHOSPHOKINASE” value [3] was 923.33 u/L and the CREATININE [3] was 0.15 mg/dL. For the same compound, the GLUCOSE [3] was 161 mg/dL, the “LACTATE DEHYDROGENASE” value [3] was 154.33 u/L and the LIPASE [3] was 10.33 u/L. For the same compound, the PHOSPHORUS [3] was 12.03 mg/dL, the POTASSIUM [3] was 8.02 MEQ/L and the SODIUM [3] was 142.27 MEQ/L. For the same compound, the “TOTAL BILIRUBIN” value [3] was 0.1 mg/dL, the “TOTAL PROTEIN” value [3] was 5.47 G/DL and the “URIC ACID” value [3] was 1.53 mg/dL. For the same compound, the “ABSOLUTE BASOPHIL” value [4] was 0 CELLS/uL, the “ABSOLUTE EOSINOPHIL” value [4] was 40.33 CELLS/uL and the “ABSOLUTE LYMPHOCYTE” value [4] was 11921 CELLS/uL. The “ABSOLUTE MONOCYTE” value [4] was 0 CELLS/uL, the “ABSOLUTE SEGMENTED NEUTROPHIL” value [4] was 1438.67 CELLS/uL and the BASOPHIL [4] was 0%. For the same compound, the EOSINOPHIL [4] was 0.33%, the “ERYTHROCYTE COUNT” value [4] was 5.89 x10E6/uL and the HEMATOCRIT [4] was 34.97%. The HEMOGLOBIN [4] was 14.13 G/DL, the “LEUKOCYTE COUNT” value [4] was 13.4 x10E3/uL and the LYMPHOCYTE [4] was 89%. The “MEAN CORPUSCULAR HEMOGLOBIN” value [4] was 24.03 pg, the “MEAN CORPUSCULAR HEMOGLOBIN CONCENTRATION” value [4] was 40.43 G/DL and the “MEAN CORPUSCULAR VOLUME” value [4] was 59.4 fL. The MONOCYTE [4] was 0%, the NEUTROPHIL [4] was 10.67% and the “NUCLEATED RED BLOOD CELLS” value [4] was 0 /100WBC. For the same compound, the “PLATELET COUNT” value [4] was 1475.33 x10E3/uL, the “ALANINE AMINOTRANSFERASE” value [4] was 55 u/L and the ALBUMIN [4] was 4.23 G/DL. The “ALKALINE PHOSPHATASE” value [4] was 354.33 u/L, the “ASPARTATE AMINOTRANSFERASE” value [4] was 79 u/L and the “BLOOD UREA NITROGEN” value [4] was 17.33 mg/dL. The “CARBON DIOXIDE” value [4] was 25.67 mmol/L, the CHLORIDE [4] was 102 MEQ/L and the CHOLESTEROL [4] was 64.67 mg/dL. For the same compound, the “CREATINE PHOSPHOKINASE” value [4] was 364.33 u/L, the CREATININE [4] was 0.17 mg/dL and the GLUCOSE [4] was 150 mg/dL. The “LACTATE DEHYDROGENASE” value [4] was 135.67 u/L, the LIPASE [4] was 10 u/L and the PHOSPHORUS [4] was 12.53 mg/dL. The POTASSIUM [4] was 7.4 MEQ/L, the SODIUM [4] was 145 MEQ/L and the “TOTAL BILIRUBIN” value [4] was 0.2 mg/dL. The “TOTAL PROTEIN” value [4] was 6.1 G/DL and the “URIC ACID” value [4] was 2.6 mg/dL.
